A melting point compilation (Tetko et al.)

melting point | SMILES
178 to 180 °C | O=C(O)c1cccc(S(=O)(=O)N2CCCCC2)c1
245 to 247 °C | Cc1oncc1C(=O)Nc1cccc(C(=O)O)c1
140 to 142 °C | NNC(=S)NCc1ccc(F)cc1
194 to 196 °C | CC(C)N(C)S(=O)(=O)c1ccc(F)c(C(=O)O)c1
96 to 98 °C | O=C(O)C=Cc1cccc(OC2CCCCC2)c1
44 to 46 °C | Cc1nc(Cl)cc(Cl)n1
86 to 88 °C | COc1cc(-c2nc(CCl)cs2)ccc1O
89 to 91 °C | CCCCOc1c(Cl)cc(C(=O)O)cc1OCC
238 to 240 °C | COc1ccc(-c2nn(-c3ccccc3)cc2C=CC(=O)O)cc1
105 to 115 °C | ClCc1nc2cc(Cl)ccc2n1Cc1ccccc1
69 to 71 °C | CN(CC(=O)O)c1ccccc1[N+](=O)[O-]
144 to 146 °C | Cc1ccc(NC(=O)c2ccccc2)cc1N
128 to 130 °C | O=[N+]([O-])c1ccc(S(=O)(=O)CCO)cc1
235 to 237 °C | Cc1oc(-c2ccc(Cl)cc2)nc1C(=O)O
166 to 168 °C | CC(C)(C)OC(=O)N1CCCC(n2cc(C(=O)O)cn2)C1 (stereo not given)
182 to 184 °C | O=C(O)CCC(=O)N1CCC(c2ccccc2)=N1
218 to 220 °C | CC1CCc2[nH]c3ccc(C(=O)O)cc3c2C1 (stereo not given)
173 to 175 °C | O=C(O)CCC(=O)NCC(=O)c1ccc(F)cc1F
51 to 53 °C | O=S(=O)(c1ccc(F)cc1)C(F)F
150 to 152 °C | CC1(c2ccccc2)NC(=O)N(NC(=O)CCl)C1=O (stereo not given)
163 to 165 °C | CC(C)(C)OC(=O)NC(C(=O)O)C1CCCCC1 (stereo not given)
148 to 150 °C | CON(C)S(=O)(=O)c1ccc(N)cc1
64 to 66 °C | O=C(Nc1ccc(OC(F)(F)F)cc1)OCC(F)(F)F
210 to 212 °C | OCc1nc2cccnc2[nH]1
193 to 195 °C | Cc1c(N)cccc1NC(=O)c1ccccc1
161 to 163 °C | Cc1noc(N)n1
269 to 271 °C | Cc1ccc(C(=O)O)cc1NC(=O)c1ccccc1
118 to 120 °C | CN(C)S(=O)(=O)c1ccc(F)c([N+](=O)[O-])c1

melting point | SMILES
163 to 167 °C | CC(=O)N1CCc2ccccc2C1CC(=O)O (stereo not given)
87 to 89 °C | OCc1nc(-c2ccccc2)cs1
126 to 128 °C | Oc1ccc(Oc2nccs2)cc1
115 to 117 °C | O=C(O)c1cccc(Oc2cccc(C(F)(F)F)c2)c1
230 to 232 °C | NNc1cc(C(F)(F)F)nc2ncnn12
129 to 131 °C | ClCc1coc(-c2ccc(I)cc2)n1
66 to 68 °C | COc1ccc(C(C)CC(=O)O)cc1 (stereo not given)
112 to 114 °C | Cn1cncc1CO
185 to 187 °C | Cc1nc(C2CCCC2)sc1C(=O)O
34 to 36 °C | Cc1c(I)cccc1[N+](=O)[O-]
67 to 69 °C | CC(C)NC(=O)CCCl
274 to 276 °C | Cc1ccc(-c2cnnc(N)n2)o1
153 to 155 °C | C#Cc1cccc(NC(N)=O)c1
69 to 71 °C | OC1CCc2c(Cl)cccc21 (stereo not given)
251 to 253 °C | Cc1cccc(-c2nc3cc(F)ccc3[nH]2)c1O
114 to 116 °C | C=CC(=O)ON=C(N)c1cccc(Cl)c1
215 to 217 °C | O=C(O)c1cnc(-c2ccc3c(c2)CCO3)s1
181 to 183 °C | O=C(Nc1cccc2cnccc12)OCC(F)(F)F
133 to 135 °C | C#CCNC(=O)Nc1ccccc1
177 to 181 °C | NNC(=O)Cc1nc2ccccc2[nH]1
199 to 201 °C | CN(C)C(=O)Cn1cc(C(=O)O)nn1
177 to 179 °C | Nc1nnc(Cc2ccsc2)s1
82 to 84 °C | OCc1cnc2ccccc2c1
122 to 124 °C | O=C(O)C1CCN(c2ccc3c(c2)OCCO3)C1=O (stereo not given)
98 to 100 °C | CC(C)(C)OC(=O)N1CCC(C(=O)NN)CC1
195 to 197 °C | COc1ccccc1-c1c[nH]cc1C(=O)O
124 to 126 °C | CC1(C)OC(=O)C(=Cc2ccc(I)o2)C(=O)O1

Further lines, the compound ahead of its results:

SMILES | melting point
O=C1Nc2c(Cl)cc(Br)cc2C1=O | 225 to 227 °C
CS(=O)(=O)c1ccc(N)c(C(=O)O)c1 | 239 to 241 °C
Cc1cccc(-n2c(=O)[nH]c3cc(C(=O)O)ccc3c2=O)c1 | 344 to 346 °C
CN1CCc2ccc(N)cc2C1=O | 127 to 129 °C
Nc1nc(-c2ccc3ccccc3n2)n[nH]1 | 297 to 299 °C
CC1CCc2c(sc3nc(CCl)[nH]c(=O)c23)C1 (stereo not given) | 180 to 182 °C
NC(=O)c1cccc2c1CCCN2 | 172 to 174 °C
O=C(O)CSc1csc(-c2ccc(Br)cc2)n1 | 178 to 180 °C
Cc1cc(C(=O)O)nc2nc(O)[nH]c(=O)c12 | 266 to 268 °C
Nc1cnc(Cl)c(C(=O)O)c1 | 193 to 195 °C
CC(C)(Cc1cccc(Cl)c1)C(=O)O | 56 to 58 °C
CCNC1CCc2[nH]c3ccc(Cl)cc3c2C1 (stereo not given) | 174 to 176 °C
Cc1noc(C)c1S(=O)(=O)N1CCC(C(=O)O)CC1 | 210 to 215 °C
COCc1ccccc1S(N)(=O)=O | 59 to 61 °C
COc1ccc2c(ccn2CC(=O)O)c1 | 140 to 142 °C
NS(=O)(=O)c1ccc(OCCSCC(=O)O)cc1 | 196 to 198 °C
O=C(O)Cc1csc(-c2cccnc2)n1 | 115 to 117 °C
CC(C)(C)n1ncc2c(=O)[nH]c(Cl)nc21 | 191 to 193 °C
O=C(O)COc1ccc(Cl)cc1C1CCCCC1 | 167 to 169 °C
O=C1Nc2cc(N3CCCC3)ccc2C1=O | 293 to 295 °C
Cc1ccc(S(=O)(=O)N2CCCC(C(=O)O)C2)cc1 (stereo not given) | 149 to 151 °C
Cn1ccnc1C(N)=S | 134 to 136 °C

SMILES | melting point
CC1(C(=O)O)CCCS1 (stereo not given) | 38 to 40 °C
O=C(O)c1cccc(-n2cccn2)n1 | 184 to 186 °C
COC(=O)c1ccc([N+](=O)[O-])cc1N | 156 to 158 °C
CC1Oc2c(C(=O)O)cccc2C1C (stereo not given) | 96 to 100 °C
NNc1ncnc2sc(-c3ccccc3)cc12 | 263 to 265 °C
COc1ccnc(NN)n1 | 119 to 121 °C
O=S(=O)(Cl)c1c(Cl)ccnc1Cl | 79 to 81 °C
CCn1cc(S(=O)(=O)Cl)c([N+](=O)[O-])n1 | 45 to 47 °C
NS(=O)(=O)c1cc(Br)c(Cl)c(C(=O)O)c1 | 219 to 221 °C
O=C(O)c1ccc(NS(=O)(=O)c2ccc(Cl)c(Cl)c2)cc1 | 254 to 256 °C
COc1ccc(C(N)C(=O)O)cc1OC (stereo not given) | 218 to 220 °C
O=c1[nH]c2cc(Br)ccc2o1 | 209 to 211 °C
CCc1cc(=O)n2c([nH]c3ccccc32)c1C#N | 244 to 246 °C
CC(Cl)C(=O)NCCc1ccc2c(c1)OCCO2 (stereo not given) | 106 to 108 °C
CC(=O)Nc1ccc(-c2csc(N)n2)c(F)c1 | 204 to 206 °C
O=C(O)c1cccc(Sc2cccc(Br)c2)n1 | 113 to 115 °C
O=C(O)C(=O)c1ccc2c(c1)CCCC2 | 70 to 72 °C
Fc1ccc(-c2cnc(C3CCNCC3)[nH]2)cc1F | 187 to 189 °C
Cc1ccc(N)c(-c2nc(C3CC3)n[nH]2)c1 | 205 to 207 °C
O=C(O)c1cccnc1SCc1ccc(F)cc1 | 191 to 193 °C
COc1ccc2c(CO)cc(=O)oc2c1 | 177 to 179 °C
CN(C)CCN1CC(C(=O)O)CC1=O (stereo not given) | 162 to 164 °C

SMILES | melting point
O=[N+]([O-])c1cc2c(cc1Br)OCCO2 | 167 to 169 °C
NC(=O)N1CC=C(c2c[nH]c3ccccc23)CC1 | 199 to 201 °C
NNc1ccc2cccc(O)c2n1 | 156 to 158 °C
COCCCn1cnnc1S | 161 to 163 °C
O=C1Nc2c(Br)cc(Cl)cc2C1=O | 245 to 247 °C
CC(=Cc1cccc(Cl)c1)C(=O)O | 99 to 101 °C
Nc1ccc(-c2nc3ccccc3[nH]2)cc1 | 218 to 222 °C
Clc1ccc(C(Cl)c2ccc(Cl)cc2)cc1 | 57 to 59 °C
C#CCN1CCNC1=O | 119 to 121 °C
COc1cccc(N2C(=O)NC(=O)C2=O)c1 | 196 to 198 °C
COc1ccc(-c2ccncc2C=O)cc1 | 82 to 84 °C
Oc1ncncc1Br | 193 to 195 °C
CCOC(=O)COc1ccc(C(N)=S)cc1 | 126 to 128 °C
O=C(O)C(=Cc1ccc(Br)cc1)c1cccs1 | 199 to 200 °C
COc1nc(N2CCNCC2)ncc1Br | 89 to 91 °C
Cc1cc(C)n2ncc(C(N)=NO)c2n1 | 227 to 229 °C
O=C(O)c1ccccc1NS(=O)(=O)c1cccc([N+](=O)[O-])c1 | 185 to 187 °C
CCC(Cc1ccccc1Br)C(=O)O (stereo not given) | 67 to 69 °C
NS(=O)(=O)N1CCc2ccccc2C1 | 159 to 161 °C
Cc1cc(S(N)(=O)=O)cc([N+](=O)[O-])c1C | 180 to 182 °C
CN(C)S(=O)(=O)c1ccc(N2CCCCC2)c(C(=O)O)c1 | 135 to 137 °C
O=C(O)c1csc(-c2ccc3c(c2)OCCO3)n1 | 199 to 201 °C

SMILES | melting point
COC(=O)CCc1ccc(N)cc1 | 39 to 41 °C
N#Cc1ccc(S(=O)(=O)CCCl)cc1 | 116 to 118 °C
CCS(=O)(=O)NCC(=O)O | 85 to 87 °C
CCN(CCC(=O)O)Cc1nc2c(C)cccc2c(=O)[nH]1 | 184 to 186 °C
O=C(O)CN1C(=O)COc2ccccc21 | 229 to 231 °C
Cc1ccc(OCC(=O)O)c(Br)c1 | 130 to 132 °C
Cc1ccc(Oc2ccc(N)cn2)cc1C | 56 to 58 °C
Nc1[nH]nc(CCC2CCCCC2)c1-c1ccc(Br)cc1 | 168 to 170 °C
O=Cc1cc2c(cc1[N+](=O)[O-])OCCO2 | 169 to 171 °C
CCOc1ccc(Oc2ccccc2N)cc1 | 158 to 160 °C
O=c1[nH]c(-c2cccc(Br)c2)no1 | 198 to 200 °C
O=C(O)c1cccnc1Oc1ccc(Cl)cc1Cl | 191 to 193 °C
Cc1cc(-c2csc(N)n2)c(F)cc1F | 219 to 221 °C
O=C(O)c1cn(-c2ccccc2)nc1-c1ccncc1 | 235 to 237 °C
O=C(Nc1ccc(-c2ccccc2)cc1)OCC(F)(F)F | 168 to 170 °C
CNc1cc(C(=O)O)cc(Cl)n1 | 259 to 261 °C
Fc1cccc(Nc2nnc(S)s2)c1 | 206 to 208 °C
O=C1CCN(c2ccc([N+](=O)[O-])cc2)CC1 | 162 to 164 °C
NNC(=O)c1cc(-c2ccncc2)nc2ccccc12 | 226 to 228 °C
